In patent US9187472B2 (AbbVie Inc., priority 2012, dated 2015):

Experiments:
[1] = target: NAMPT (human, recombinant, C-terminally His-tagged) (Homo sapiens, UniProt P43490); assay: Time-Resolved Fluorescence Resonance Energy Transfer (TR-FRET) Binding Assay of NAMPT; conditions: without substrates; 6.8 nM NAMPT, 200 nM probe, 3 hours equilibration
Summary of the method: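 In a displacement format, the nicotinamide-site tracer at 200 nM competed with test compound for 6.8 nM enzyme detected via 1 nM terbium anti-His antibody; incubation lasted 3 hours at room temperature in 50 mM HEPES pH 7.5, 100 mM NaCl. Normalized 520/495 nm emission ratios gave IC50 values.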

NAMPT = NAMPT (Homo sapiens, UniProt P43490); assay: TR-FRET Binding Assay of NAMPT with PRPP; conditions: with 200 μM PRPP and 2.5 mM ATP; 2 nM NAMPT, 2 nM probe, 16 hours equilibration
Chain of NAMPT (P43490 whole entry): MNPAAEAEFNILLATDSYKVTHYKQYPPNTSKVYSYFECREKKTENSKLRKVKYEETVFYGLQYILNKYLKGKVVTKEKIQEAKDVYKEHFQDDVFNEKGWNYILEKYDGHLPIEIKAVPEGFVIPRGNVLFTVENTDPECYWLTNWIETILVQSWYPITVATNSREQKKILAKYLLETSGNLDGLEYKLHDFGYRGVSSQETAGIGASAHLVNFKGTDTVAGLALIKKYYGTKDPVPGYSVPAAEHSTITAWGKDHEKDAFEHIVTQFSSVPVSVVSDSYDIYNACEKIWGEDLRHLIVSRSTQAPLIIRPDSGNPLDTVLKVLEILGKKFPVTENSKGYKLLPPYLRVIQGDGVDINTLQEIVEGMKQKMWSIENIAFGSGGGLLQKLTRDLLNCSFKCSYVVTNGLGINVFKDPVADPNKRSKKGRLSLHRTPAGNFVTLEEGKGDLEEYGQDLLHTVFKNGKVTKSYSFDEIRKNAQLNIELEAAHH
Summary of the method: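 Substrate-containing variant: 200 μM PRPP plus 2.5 mM ATP are added to 2 nM NAMPT and 2 nM probe, with a 16-hour incubation ahead of TR-FRET reading.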

PC3 cells = assay: NAMPT Cell Proliferation Assay; type: cell-based; conditions: Homo sapiens, PC-3, 120 h, 5 days incubation, cell viability by Cell Titer Glo
Summary of the method: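 PC3 cells were plated at 500 cells/well in RPMI with 10% heat-inactivated FBS, left to attach overnight, then given compounds in 10-fold dilutions from 10 μM to 1×10^−5 μM. After 5 days at 37° C and 5% CO2, viability was read by luminescence and IC50s came from sigmoidal fits of percent inhibition.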

Chain of NAMPT (human, recombinant, C-terminally His-tagged) (P43490 whole entry): as above

Row | SMILES | IC50 [1] | IC50 (NAMPT) | IC50 (PC3 cells)
1 | CC(C)C(=O)N1CC(c2ccc(C(=O)NCc3ccn4ccnc4c3)cc2)C1 [Example 490, N-(imidazo[1,2-a]pyridin-7-ylmethyl)-4-[1-(2-methylpropanoyl)azetidin-3-yl]benzamide] | 753 nM | 0.267 nM | 89.9 nM
2 | O=C(NCc1ccn2ccnc2c1)c1ccc(C2CCN(C(=O)C3CCC(F)(F)CC3)CC2)cc1 [Example 441, 4-{1-[(4,4-difluorocyclohexyl)carbonyl]piperidin-4-yl}-N-(imidazo[1,2-a]pyridin-7-ylmethyl)benzamide] | 338 nM | 0.324 nM | 7.2 nM
3 | O=C(NCc1ccn2ccnc2c1)Nc1ccc(OC2CCN(C(=O)c3cc(F)cc(F)c3)CC2)cc1 [Example 730, 1-(4-{[1-(3,5-difluorobenzoyl)piperidin-4-yl]oxy}phenyl)-3-(imidazo[1,2-a]pyridin-7-ylmethyl)urea] | 489 nM | 0.847 nM | 29.5 nM
4 | O=C(Nc1ccc(C(=O)NCC2CCCC2)cc1)Nc1ccc2nccn2c1 [Example 8, N-(cyclopentylmethyl)-4-[(imidazo[1,2-a]pyridin-6-ylcarbamoyl)amino]benzamide] | 114 nM | 0.702 nM | 70.2 nM
5 | CC(=O)Nc1ccc(NC(=O)Nc2ccc3nccn3c2)cc1 [Example 27] | 756 nM | 0.658 nM | 7540 nM
6 | O=C(NCc1ccc2nccn2c1)c1ccc(OC2CCN(C(=O)CC3CCOCC3)CC2)cc1 [Example 171, N-(imidazo[1,2-a]pyridin-6-ylmethyl)-4-{[1-(tetrahydro-2H-pyran-4-ylacetyl)piperidin-4-yl]oxy}benzamide] | 2170 nM | 2.51 nM | 44.7 nM
7 | O=C(NCc1ccn2ccnc2c1)c1ccc(C2CCN(C(=O)c3cccc(OC(F)(F)F)c3)C2)cc1 (stereo not drawn) [Example 618, N-(imidazo[1,2-a]pyridin-7-ylmethyl)-4-{1-[3-(trifluoromethoxy)benzoyl]pyrrolidin-3-yl}benzamide] | 500 nM | 0.751 nM | 125 nM
8 | O=C(NCc1ccn2ccnc2c1)c1cnc(N(C[C@H]2CCCO2)C(=O)Cc2ccon2)s1 [Example 192, N-(imidazo[1,2-a]pyridin-7-ylmethyl)-2-{(1,2-oxazol-3-ylacetyl)[(2R)-tetrahydrofuran-2-ylmethyl]amino}-1,3-thiazole-5-carboxamide] | 238 nM | 0.242 nM | 1.85 nM
9 | O=C(Nc1ccc(C2=CCN(C(=O)CC3CCOC3)CC2)cc1)Nc1ccc2nccn2c1 (stereo not drawn) [Example 28, 1-imidazo[1,2-a]pyridin-6-yl-3-{4-[1-(tetrahydrofuran-3-ylacetyl)-1,2,3,6-tetrahydropyridin-4-yl]phenyl}urea] | 152 nM | 0.19 nM | 14.2 nM
10 | O=C(Nc1ccc(C2=CCN(C(=O)C3COCCO3)CC2)cc1)Nc1ccc2nccn2c1 (stereo not drawn) [Example 35, 1-{4-[1-(1,4-dioxan-2-ylcarbonyl)-1,2,3,6-tetrahydropyridin-4-yl]phenyl}-3-imidazo[1,2-a]pyridin-6-ylurea] | 387 nM | 0.801 nM | 58.6 nM
11 | CC(C)C(C)C(=O)N1CC(c2ccc(C(=O)NCc3ccn4ccnc4c3)cc2)C1 (stereo not drawn) [Example 666, 4-[1-(2,3-dimethylbutanoyl)azetidin-3-yl]-N-(imidazo[1,2-a]pyridin-7-ylmethyl)benzamide] | 193 nM | 0.855 nM | 5.18 nM
12 | O=C(NCc1ccn2ccnc2c1)Nc1ccc(C2CCN(C(=O)[C@H]3CCOC3)C2)cc1 (stereo partly drawn) [Example 388, 1-(imidazo[1,2-a]pyridin-7-ylmethyl)-3-(4-{1-[(3S)-tetrahydrofuran-3-ylcarbonyl]pyrrolidin-3-yl}phenyl)urea] | 388 nM | 0.506 nM | 122 nM
13 | Cn1nccc1C(=O)N1CCC(c2ccc(C(=O)NCc3ccn4ccnc4c3)s2)C1 (stereo not drawn) [Example 799, N-(imidazo[1,2-a]pyridin-7-ylmethyl)-5-{1-[(1-methyl-1H-pyrazol-5-yl)carbonyl]pyrrolidin-3-yl}thiophene-2-carboxamide] | 102 nM | 0.406 nM | 6.96 nM
14 | O=C(NCc1ccc2nccn2c1)c1cnc(N(CC2CCOC2)C(=O)C2CCOCC2)s1 (stereo not drawn) [Example 140, N-(imidazo[1,2-a]pyridin-6-ylmethyl)-2-[(tetrahydrofuran-3-ylmethyl)(tetrahydro-2H-pyran-4-ylcarbonyl)amino]-1,3-thiazole-5-carboxamide] | 1340 nM | 0.927 nM | 65.5 nM
15 | CC[C@H](C)C(=O)N1CC=C(c2ccc(C(=O)NCc3ccn4ccnc4c3)o2)CC1 [Example 748, N-(imidazo[1,2-a]pyridin-7-ylmethyl)-5-{1-[(2S)-2-methylbutanoyl]-1,2,3,6-tetrahydropyridin-4-yl}furan-2-carboxamide] | 558 nM | 0.648 nM | 50.7 nM
16 | O=C(NCc1ccn2ccnc2c1)Nc1ccc(OC2CCN(C(=O)CC3CC3)CC2)cc1 [Example 444, 1-(4-{[1-(cyclopropylacetyl)piperidin-4-yl]oxy}phenyl)-3-(imidazo[1,2-a]pyridin-7-ylmethyl)urea] | 156 nM | 0.244 nM | 69.9 nM
17 | CC(C)(C)OC(=O)N1CC=C(c2ccc(NC(=O)NCc3ccn4ccnc4c3)c(F)c2)CC1 [Example 290, tert-butyl 4-(3-fluoro-4-{[(imidazo[1,2-a]pyridin-7-ylmethyl)carbamoyl]amino}phenyl)-3,6-dihydropyridine-1(2H)-carboxylate] | 415 nM | 0.96 nM | 72.2 nM
18 | O=C(Nc1ccc(C(=O)NCCc2ccccc2)cc1)Nc1ccc2nccn2c1 [Example 4, 4-[(imidazo[1,2-a]pyridin-6-ylcarbamoyl)amino]-N-(2-phenylethyl)benzamide] | 413 nM | 0.516 nM | 935 nM

The remaining compounds from weak to strong by IC50 [1], led by results:

Row | IC50 [1] | IC50 (NAMPT) | IC50 (PC3 cells) | SMILES
19 | 101 nM | 0.169 nM | 17.4 nM | Cn1cccc1C(=O)N1CCC(c2ccc(C(=O)NCc3ccn4ccnc4c3)cc2)CC1 [Example 533, N-(imidazo[1,2-a]pyridin-7-ylmethyl)-4-{1-[(1-methyl-1H-pyrrol-2-yl)carbonyl]piperidin-4-yl}benzamide]
20 | 96.3 nM | 0.208 nM | 171 nM | CC(C)C(=O)N1CC=C(c2ncc(C(=O)NCc3ccn4ccnc4c3)s2)CC1 [Example 320, N-(imidazo[1,2-a]pyridin-7-ylmethyl)-2-[1-(2-methylpropanoyl)-1,2,3,6-tetrahydropyridin-4-yl]-1,3-thiazole-5-carboxamide]
21 | 91.7 nM | 0.232 nM | 23.3 nM | CC(C)Cn1cc(-c2ccc(NC(=O)NCc3ccn4ccnc4c3)cc2)cn1 [Example 486, 1-(imidazo[1,2-a]pyridin-7-ylmethyl)-3-{4-[1-(2-methylpropyl)-1H-pyrazol-4-yl]phenyl}urea]
22 | 82.6 nM | 0.593 nM | 301 nM | O=C(CCc1ccccc1)Nc1ccc(NC(=O)NCc2ccn3ccnc3c2)cc1 [Example 285, N-(4-{[(imidazo[1,2-a]pyridin-7-ylmethyl)carbamoyl]amino}phenyl)-3-phenylpropanamide]
23 | 46.6 nM | 0.281 nM | 1.89 nM | O=C(NCc1ccc2nccn2c1)c1ccc(-c2cnn(CC3CCOCC3)c2)s1 [Example 201, N-(imidazo[1,2-a]pyridin-6-ylmethyl)-5-[1-(tetrahydro-2H-pyran-4-ylmethyl)-1H-pyrazol-4-yl]thiophene-2-carboxamide]
24 | 35.1 nM | 0.337 nM | 2.89 nM | O=C(NCc1ccn2ccnc2c1)c1ccc(C2CCN(C(=O)c3ccccc3)C2)s1 (stereo not drawn) [Example 542, 5-(1-benzoylpyrrolidin-3-yl)-N-(imidazo[1,2-a]pyridin-7-ylmethyl)thiophene-2-carboxamide]
25 | 30.1 nM | 0.506 nM | 1.12 nM | O=C(NCc1ccn2ccnc2c1)c1ccc(C2CCN(C(=O)c3cccc(F)c3)C2)s1 (stereo not drawn) [Example 762, 5-[1-(3-fluorobenzoyl)pyrrolidin-3-yl]-N-(imidazo[1,2-a]pyridin-7-ylmethyl)thiophene-2-carboxamide]
26 | 24.2 nM | 0.403 nM | 3.72 nM | CC(C)CS(=O)(=O)N1CCC(c2ccc(C(=O)NCc3ccn4ccnc4c3)s2)CC1 [Example 573, N-(imidazo[1,2-a]pyridin-7-ylmethyl)-5-{1-[(2-methylpropyl)sulfonyl]piperidin-4-yl}thiophene-2-carboxamide]
27 | 20.1 nM | 0.169 nM | 1.69 nM | CC1(Cn2cc(-c3ccc(C(=O)NCc4ccc5nccn5c4)s3)cn2)COC1 [Example 177, N-(imidazo[1,2-a]pyridin-6-ylmethyl)-5-{1-[(3-methyloxetan-3-yl)methyl]-1H-pyrazol-4-yl}thiophene-2-carboxamide]
28 | 14.2 nM | 0.605 nM | 0.553 nM | CC1(Cn2cc(-c3ccc(C(=O)NCc4ccn5ccnc5c4)o3)cn2)CCOCC1 [Example 734, N-(imidazo[1,2-a]pyridin-7-ylmethyl)-5-{1-[(4-methyltetrahydro-2H-pyran-4-yl)methyl]-1H-pyrazol-4-yl}furan-2-carboxamide]
